Values joined by “and” are separate entries in the source; they are usually repeats but may differ in a detail not shown here. Identical values can stand only once. Inconclusive results and toxic doses are left out.
System: P388 leukemia ip, CD2F1 mice, survival T/C
Assay: NCI In Vivo Anticancer Drug Screen. Data for tumor model P388 Leukemia (intraperitoneal) in CD2F1 (CDF1) mice
Details: endpoint: median survival time, higher = longer survival
Summary of the method: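 Mice carrying the transplanted tumor received test compound or vehicle. Survival was recorded in each group, and the value is the treated-group measurement divided by that of the vehicle-treated control group.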

[1] = dose: 50.0 mg/kg/injection, schedule: Q01DX009 (ip), vehicle: saline
[2] = dose: 100.0 mg/kg/injection, schedule: Q01DX009 (ip), vehicle: saline
[3] = dose: 240.0 mg/kg/injection, schedule: Q01DX005 (ip), vehicle: Klucel (hydroxypropylcellulose) (HPC)
[4] = dose: 50.0 mg/kg/injection, schedule: Q01DX005 (ip), vehicle: Klucel (hydroxypropylcellulose) (HPC)
[5] = dose: 100.0 mg/kg/injection, schedule: Q01DX005 (ip), vehicle: Klucel (hydroxypropylcellulose) (HPC)
[6] = dose: 50.0 mg/kg/injection, schedule: Q04DX002 (ip), vehicle: saline with Tween-80
[7] = dose: 100.0 mg/kg/injection, schedule: Q04DX002 (ip), vehicle: saline with Tween-80
[8] = dose: 200.0 mg/kg/injection, schedule: Q04DX002 (ip), vehicle: saline with Tween-80

ClCC(OCc1ccccc1)OCc1ccccc1
T/C (dose: 12.5 mg/kg/injection, schedule: Q01DX009 (ip), vehicle: other): 114 % of control
T/C (dose: 25.0 mg/kg/injection, schedule: Q01DX009 (ip), vehicle: other): 100 % of control
T/C (dose: 50.0 mg/kg/injection, schedule: Q01DX009 (ip), vehicle: other): 100 % of control
T/C (dose: 100.0 mg/kg/injection, schedule: Q01DX009 (ip), vehicle: other): 111 % of control
T/C (dose: 200.0 mg/kg/injection, schedule: Q01DX009 (ip), vehicle: other): 119 % of control

CC1=CN2CCC(=O)N=C2C=C1
T/C [1]: 93 % of control
T/C [2]: 90 % of control
T/C (dose: 200.0 mg/kg/injection, schedule: Q01DX009 (ip), vehicle: saline): 94 % of control

CCN=C(N)Nc1ccc(NC(=O)c2ccc(C(=O)Nc3ccc(NC(N)=NCC)cc3)cc2)cc1
T/C (dose: 3.13 mg/kg/injection, schedule: Q01DX009 (ip), vehicle: saline with Tween-80): 163 % of control
T/C (dose: 3.13 mg/kg/injection, schedule: Q04DX003 (ip), vehicle: saline with Tween-80): 113 % of control
T/C (dose: 6.25 mg/kg/injection, schedule: Q01DX009 (ip), vehicle: saline with Tween-80): 168 % of control
T/C (dose: 6.25 mg/kg/injection, schedule: Q04DX003 (ip), vehicle: saline with Tween-80): 122 % of control
T/C (dose: 12.5 mg/kg/injection, schedule: Q01DX009 (ip), vehicle: saline with Tween-80): 109 % of control and 113 % of control
T/C (dose: 25.0 mg/kg/injection, schedule: Q04DX003 (ip), vehicle: saline with Tween-80): 200 % of control
T/C (dose: 50.0 mg/kg/injection, schedule: Q04DX003 (ip), vehicle: saline with Tween-80): 181 % of control

Cc1cc(OC(=O)N2CCCCC2)c(C(C)C)cc1[N+](C)(C)C
T/C (dose: 0.02 mg/kg/injection, schedule: Q01DX009 (ip), vehicle: saline): 100 % of control
T/C (dose: 0.03 mg/kg/injection, schedule: Q01DX009 (ip), vehicle: saline): 100 % of control
T/C (dose: 0.06 mg/kg/injection, schedule: Q01DX009 (ip), vehicle: saline): 90 % of control

CCNS(=O)(=O)c1ccc2c(c1)nc(SC)n2CC
T/C (dose: 60.0 mg/kg/injection, schedule: Q01DX005 (ip), vehicle: Klucel (hydroxypropylcellulose) (HPC)): 104 % of control
T/C (dose: 120.0 mg/kg/injection, schedule: Q01DX005 (ip), vehicle: Klucel (hydroxypropylcellulose) (HPC)): 105 % of control
T/C [3]: 104 % of control

CSCS(=O)C[C@H](CO)NC(=O)/C=C/c1c(C)[nH]c(=O)[nH]c1=O (stereo partly specified)
T/C (dose: 0.08 mg/kg/injection, schedule: Q01DX009 (ip), vehicle: other): 97 % of control
T/C (dose: 0.4 mg/kg/injection, schedule: Q01DX009 (ip), vehicle: water): 94 % of control
T/C (dose: 0.5 mg/kg/injection, schedule: Q01DX009 (ip), vehicle: water): 95 % of control

COc1cc2c(cc1OC)-c1nc(Nc3ccccc3)sc1CC2
T/C (dose: 50.0 mg/kg/injection, schedule: Q01DX009 (ip), vehicle: saline with Tween-80): 106 % of control
T/C (dose: 100.0 mg/kg/injection, schedule: Q01DX009 (ip), vehicle: saline with Tween-80): 106 % of control
T/C (dose: 200.0 mg/kg/injection, schedule: Q01DX009 (ip), vehicle: saline with Tween-80): 89 % of control

O=C1C(N2CCCCC2)=C(N2CC2)C(=O)C(N2CCCCC2)=C1N1CC1
T/C (dose: 2.5 mg/kg/injection, schedule: Q01DX009 (ip), vehicle: saline): 112 % of control
T/C (dose: 10.0 mg/kg/injection, schedule: Q01DX009 (ip), vehicle: saline): 177 % of control

O=C(O)CCCNS(=O)(=O)c1ccc(S(=O)(=O)NCCCC(=O)O)cc1
T/C [4]: 99 % of control
T/C [5]: 103 % of control
T/C (dose: 200.0 mg/kg/injection, schedule: Q01DX005 (ip), vehicle: Klucel (hydroxypropylcellulose) (HPC)): 103 % of control

Cc1ccc(C(=O)N/N=C/c2cccc(C(N)=S)c2)cc1
T/C (dose: 100.0 mg/kg/injection, schedule: Q01DX001 (ip), vehicle: saline): 88 % of control
T/C (dose: 200.0 mg/kg/injection, schedule: Q01DX001 (ip), vehicle: saline): 87 % of control
T/C (dose: 400.0 mg/kg/injection, schedule: Q01DX001 (ip), vehicle: saline): 86 % of control

CC(=O)c1cc(C)oc1C
T/C (dose: 25.0 mg/kg/injection, schedule: Q01DX009 (ip), vehicle: saline): 100 % of control
T/C [1]: 100 % of control and 111 % of control and 112 % of control
T/C [2]: 109 % of control and 111 % of control and 112 % of control
T/C (dose: 400.0 mg/kg/injection, schedule: Q01DX009 (ip), vehicle: saline): 116 % of control

CC(C)c1cccc(C(C)C)c1NC(=O)Nc1cccc(C(F)(F)F)c1
T/C (dose: 15.0 mg/kg/injection, schedule: Q01DX005 (ip), vehicle: Klucel (hydroxypropylcellulose) (HPC)): 88 % of control
T/C (dose: 30.0 mg/kg/injection, schedule: Q01DX005 (ip), vehicle: Klucel (hydroxypropylcellulose) (HPC)): 93 % of control
T/C [3]: 88 % of control

O=C(O)COC1CC(=O)N2c3ccccc3C34CCN5C(=O)C(=O)C(CC53)C1C24 (stereo unspecified)
T/C (dose: 60.0 mg/kg/injection, schedule: Q01DX005 (ip), vehicle: saline with Tween-80): 96 % of control
T/C (dose: 120.0 mg/kg/injection, schedule: Q01DX005 (ip), vehicle: saline with Tween-80): 95 % of control
T/C (dose: 240.0 mg/kg/injection, schedule: Q01DX005 (ip), vehicle: saline with Tween-80): 88 % of control

Brc1cccc(C(Nc2nncs2)Nc2nncs2)c1
T/C [6]: 91 % of control
T/C [7]: 92 % of control and 95 % of control
T/C [8]: 100 % of control and 111 % of control
T/C (dose: 400.0 mg/kg/injection, schedule: Q04DX002 (ip), vehicle: saline with Tween-80): 124 % of control

C[n+]1c(-c2ccc(/C=N\Nc3nnc(S)n3/N=C/c3ccc(-c4cn5ccccc5[n+]4C)cc3)cc2)cn2ccccc21
T/C (dose: 0.23 mg/kg/injection, schedule: Q01DX005 (ip), vehicle: saline with Tween-80): 101 % of control
T/C (dose: 0.47 mg/kg/injection, schedule: Q01DX005 (ip), vehicle: saline with Tween-80): 92 % of control
T/C (dose: 0.94 mg/kg/injection, schedule: Q01DX005 (ip), vehicle: saline with Tween-80): 95 % of control
T/C (dose: 1.88 mg/kg/injection, schedule: Q01DX005 (ip), vehicle: saline with Tween-80): 100 % of control

CCN(CC)c1ccc(NC(c2ccccc2)C(O)c2ccccc2)cc1 (stereo unspecified)
T/C [4]: 96 % of control
T/C [5]: 104 % of control

NNC(=O)c1ccccc1N
T/C (dose: 25.0 mg/kg/injection, schedule: Q01DX009 (ip), vehicle: water): 96 % of control
T/C (dose: 50.0 mg/kg/injection, schedule: Q01DX009 (ip), vehicle: water): 96 % of control

CCC1SC(=S)NC1=O (stereo unspecified)
T/C (dose: 50.0 mg/kg/injection, schedule: Q01DX005 (ip), vehicle: saline with Tween-80): 92 % of control
T/C (dose: 100.0 mg/kg/injection, schedule: Q01DX005 (ip), vehicle: saline with Tween-80): 92 % of control

N#CC1CCCC(C#N)N1 (stereo unspecified)
T/C (dose: 6.25 mg/kg/injection, schedule: Q01DX005 (ip), vehicle: saline): 100 % of control
T/C (dose: 12.5 mg/kg/injection, schedule: Q01DX005 (ip), vehicle: saline): 88 % of control
T/C (dose: 25.0 mg/kg/injection, schedule: Q01DX005 (ip), vehicle: saline): 100 % of control

Cc1c2ncccc2c(C)c2c1[nH]c1ccccc12
T/C (dose: 25.0 mg/kg/injection, schedule: Q04DX002 (ip), vehicle: saline with Tween-80): 100 % of control
T/C [6]: 91 % of control
T/C [7]: 98 % of control
T/C [8]: 89 % of control

COc1cccc2c1C(=O)c1c(O)c3c(c(O)c1C2=O)CC(O)(/C(C)=N/NC(=O)CCCCCC(=O)N/N=C(\C)C1(O)Cc2c(O)c4c(c(O)c2C(OC2CC(N)C(O)C(C)O2)C1)C(=O)c1c(OC)cccc1C4=O)CC3OC1CC(N)C(O)C(C)O1 (stereo unspecified)
T/C (dose: 0.78 mg/kg/injection, schedule: Q01DX009 (ip), vehicle: water): 158 % of control
T/C (dose: 1.56 mg/kg/injection, schedule: Q01DX009 (ip), vehicle: water): 157 % of control and 163 % of control
T/C (dose: 3.13 mg/kg/injection, schedule: Q01DX009 (ip), vehicle: water): 153 % of control and 154 % of control
T/C (dose: 6.25 mg/kg/injection, schedule: Q01DX009 (ip), vehicle: water): 200 % of control and 202 % of control
T/C (dose: 12.5 mg/kg/injection, schedule: Q01DX009 (ip), vehicle: water): 88 % of control and 93 % of control

From PubChem BioAssay AID330 (DTP/NCI, 2004)
